Assay results from US9476053B2, “Methods and compositions for inhibition of immune responses and autoimmunity” (Dynavax Technologies Corporation, priority 2007, dated 2016).
Values belong to the compound of their own block, whether it stands above or below them.

How the values were obtained:
TLR7 = molecular target: T1, TLR7 (Mus musculus, UniProt P58681); experiment: Mouse splenocytes stimulated with R848 (TLR7 ligand), IL-6 by immunoassay; assay type: cell-based
T1 construct: The dispersed splenocytes were pelleted by centrifugation, then resuspended in fresh medium; endogenous in cells; host or cells: primary splenocytes of BALB/c mice
T1 sequence (P58681 27-1050): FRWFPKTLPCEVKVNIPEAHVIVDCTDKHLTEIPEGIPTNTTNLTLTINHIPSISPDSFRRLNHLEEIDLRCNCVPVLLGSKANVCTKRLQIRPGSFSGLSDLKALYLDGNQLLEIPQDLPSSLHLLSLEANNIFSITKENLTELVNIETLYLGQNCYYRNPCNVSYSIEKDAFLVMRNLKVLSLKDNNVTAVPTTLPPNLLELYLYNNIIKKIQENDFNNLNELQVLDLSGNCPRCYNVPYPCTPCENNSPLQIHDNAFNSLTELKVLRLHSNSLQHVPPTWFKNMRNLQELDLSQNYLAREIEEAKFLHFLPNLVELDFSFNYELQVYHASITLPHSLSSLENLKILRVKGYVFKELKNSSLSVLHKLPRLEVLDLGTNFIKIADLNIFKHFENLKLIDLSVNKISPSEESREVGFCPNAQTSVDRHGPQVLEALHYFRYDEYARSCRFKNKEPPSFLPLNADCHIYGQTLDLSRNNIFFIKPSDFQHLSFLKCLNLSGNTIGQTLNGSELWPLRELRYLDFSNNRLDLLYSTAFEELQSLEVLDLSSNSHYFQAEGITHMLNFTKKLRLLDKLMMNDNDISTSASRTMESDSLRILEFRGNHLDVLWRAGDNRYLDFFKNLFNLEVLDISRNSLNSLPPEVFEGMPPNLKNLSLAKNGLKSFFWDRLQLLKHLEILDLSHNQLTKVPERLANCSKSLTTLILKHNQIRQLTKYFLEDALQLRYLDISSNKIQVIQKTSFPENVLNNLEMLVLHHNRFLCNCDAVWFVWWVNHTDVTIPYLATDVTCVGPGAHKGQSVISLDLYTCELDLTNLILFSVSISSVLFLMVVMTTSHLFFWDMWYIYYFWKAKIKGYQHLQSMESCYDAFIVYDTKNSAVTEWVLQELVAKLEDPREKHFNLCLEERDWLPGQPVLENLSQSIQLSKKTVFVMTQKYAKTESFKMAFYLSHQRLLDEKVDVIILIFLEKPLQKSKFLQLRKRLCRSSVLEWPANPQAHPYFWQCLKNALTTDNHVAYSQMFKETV
Description: (§1) Modified and unmodified immunoregulatory polynucleotides (IRPs) (i.e., polynucleotides containing at least one modified or unmodified IRS) or control samples were assayed for immunoregulatory (IR) activity of innate immune responses on human and mouse cells.
(§2) For mouse cell assays, spleens from 6-12 week-old BALB/c mice spleen were harvested and mechanically dispersed by forcing the digested fragments through metal screens. The dispersed splenocytes were pelleted by centrifugation, then resuspended in fresh medium (RPMI 1640 with 10% fetal calf serum, plus 50 units/mL penicillin, 50 μg/mL streptomycin, 2 mM glutamine, and 0.05 mM β-mercaptoethanol). In a dose-dependent manner, the cells were then stimulated with […] of 1018 ISS (TLR9 ligand; 5′-[…]-3′ (SEQ ID NO:122)) or 1 μM of R848 (TLR7 ligand; a small molecule, an imidazoquinoline also called resiquimod) either alone or in the presence of the tested IRPs. At 48 hours, supernatants were collected and cytokine levels, IL-6, were measured using immunoassays. […]

TLR9 [1] = molecular target: T2, TLR9 (Mus musculus, UniProt Q9EQU3); experiment: Mouse splenocytes stimulated with 1018 ISS (TLR9 ligand), IL-6 by immunoassay; assay type: cell-based; settings: TLR9 stimulation (1018 ISS)
T2 construct: The dispersed splenocytes were pelleted by centrifugation, then resuspended in fresh medium; endogenous in cells; host or cells: primary splenocytes of BALB/c mice
T2 sequence (Q9EQU3 26-1032): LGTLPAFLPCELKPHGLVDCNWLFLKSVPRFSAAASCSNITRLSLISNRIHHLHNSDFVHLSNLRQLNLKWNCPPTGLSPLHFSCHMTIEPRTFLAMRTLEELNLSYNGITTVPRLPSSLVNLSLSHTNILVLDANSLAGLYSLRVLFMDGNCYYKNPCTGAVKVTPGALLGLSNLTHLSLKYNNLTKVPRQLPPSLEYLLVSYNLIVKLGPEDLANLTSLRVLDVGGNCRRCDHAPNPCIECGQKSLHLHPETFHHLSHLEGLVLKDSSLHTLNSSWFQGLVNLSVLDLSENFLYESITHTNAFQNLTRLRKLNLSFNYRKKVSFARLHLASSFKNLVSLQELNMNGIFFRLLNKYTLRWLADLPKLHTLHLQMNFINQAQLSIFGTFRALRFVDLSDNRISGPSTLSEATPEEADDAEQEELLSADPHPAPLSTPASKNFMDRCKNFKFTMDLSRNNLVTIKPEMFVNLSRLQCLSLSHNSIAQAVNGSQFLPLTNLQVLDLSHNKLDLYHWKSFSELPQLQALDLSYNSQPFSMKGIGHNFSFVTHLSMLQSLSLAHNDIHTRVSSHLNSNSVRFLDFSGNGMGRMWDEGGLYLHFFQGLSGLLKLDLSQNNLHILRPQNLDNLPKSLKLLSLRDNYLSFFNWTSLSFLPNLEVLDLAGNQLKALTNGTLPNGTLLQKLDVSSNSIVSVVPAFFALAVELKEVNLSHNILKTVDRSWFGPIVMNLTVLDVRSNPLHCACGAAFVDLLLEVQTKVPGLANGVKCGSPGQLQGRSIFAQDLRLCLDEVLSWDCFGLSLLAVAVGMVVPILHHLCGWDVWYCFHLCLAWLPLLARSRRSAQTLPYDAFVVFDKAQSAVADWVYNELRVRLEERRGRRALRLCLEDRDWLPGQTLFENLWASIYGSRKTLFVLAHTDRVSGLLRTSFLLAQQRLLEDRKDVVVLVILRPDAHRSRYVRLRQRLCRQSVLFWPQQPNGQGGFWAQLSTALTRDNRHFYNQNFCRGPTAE
Description: as §1, §2

[2] = Solubility of spacer measured as dialcohol precursor; assay type: physicochemical; settings: dodecyl spacer measured as dialcohol precursor
Description: Thus, the definition of spacers excludes microcarriers or nanocarriers. In addition, a spacer moiety that has low solubility, such as a dodecyl spacer (solubility <5 mg/ml when measured as dialcohol precursor 1,12-dihydroxydodecane) is not preferred because it can reduce the hydrophilicity and activity of the IRC. Preferably, spacer moieties have solubility much greater than 5 mg/ml (e.g., 20 mg/ml, ≦50 mg/ml or 100 mg/ml) when measured as dialcohol precursors.

PDC = experiment: In vivo cell survival after escalating dose of Dexthametasone in 129 mice; parameters: species or system mouse; settings: 0.5 mg-4 mg, 16 hours, spleen and blood
Description: To investigate whether PDC are sensitive to glucorticoid induced death in vivo, 129 mice were treated with escalating dose of Dexthametasone (0.5 mg-4 mg) and after 16 hours spleen and blood was harvest. Cell survival was measured by flow cytometry. The number of viable cells was evaluated by flow cytometry by comparing to a fixed amount of microbeads that was added in equal amount in all samples prior to the measure on the flow cytometry.
Specific markers were used to identify specific subsets. Cells were identified to be PDC by the surface presence of B220, CD11c, and PDCA1 marker. Myeloid dendritic cells were identified as to be CD11c positive and B220 negative. B-cells were identified as B220 positive cells and CD11c negative. Monocytes were identified as CD11b positive. Cell viability using cells from spleen tissue under increasing Dexthametason dose was evaluated and results are shown in FIG. 32. Similar results were obtained using blood (data not shown). PDC were sensitive to glucorticoid induced death in vivo.

TLR9 [3] = molecular target: T3, TLR9 (Homo sapiens, UniProt Q9NR96); experiment: Human PDC activated with CpG-C ISS C274, IFN-α production, IRS coupled to Ficoll 400; assay type: cell-based; parameters: innate immune responses on human plasmacytoid dendritic cells (PDCs); endogenous in cells; host or cells: human plasmacytoid dendritic cells (PDCs); settings: compared with IRS not coupled
T3 sequence (Q9NR96 26-1032): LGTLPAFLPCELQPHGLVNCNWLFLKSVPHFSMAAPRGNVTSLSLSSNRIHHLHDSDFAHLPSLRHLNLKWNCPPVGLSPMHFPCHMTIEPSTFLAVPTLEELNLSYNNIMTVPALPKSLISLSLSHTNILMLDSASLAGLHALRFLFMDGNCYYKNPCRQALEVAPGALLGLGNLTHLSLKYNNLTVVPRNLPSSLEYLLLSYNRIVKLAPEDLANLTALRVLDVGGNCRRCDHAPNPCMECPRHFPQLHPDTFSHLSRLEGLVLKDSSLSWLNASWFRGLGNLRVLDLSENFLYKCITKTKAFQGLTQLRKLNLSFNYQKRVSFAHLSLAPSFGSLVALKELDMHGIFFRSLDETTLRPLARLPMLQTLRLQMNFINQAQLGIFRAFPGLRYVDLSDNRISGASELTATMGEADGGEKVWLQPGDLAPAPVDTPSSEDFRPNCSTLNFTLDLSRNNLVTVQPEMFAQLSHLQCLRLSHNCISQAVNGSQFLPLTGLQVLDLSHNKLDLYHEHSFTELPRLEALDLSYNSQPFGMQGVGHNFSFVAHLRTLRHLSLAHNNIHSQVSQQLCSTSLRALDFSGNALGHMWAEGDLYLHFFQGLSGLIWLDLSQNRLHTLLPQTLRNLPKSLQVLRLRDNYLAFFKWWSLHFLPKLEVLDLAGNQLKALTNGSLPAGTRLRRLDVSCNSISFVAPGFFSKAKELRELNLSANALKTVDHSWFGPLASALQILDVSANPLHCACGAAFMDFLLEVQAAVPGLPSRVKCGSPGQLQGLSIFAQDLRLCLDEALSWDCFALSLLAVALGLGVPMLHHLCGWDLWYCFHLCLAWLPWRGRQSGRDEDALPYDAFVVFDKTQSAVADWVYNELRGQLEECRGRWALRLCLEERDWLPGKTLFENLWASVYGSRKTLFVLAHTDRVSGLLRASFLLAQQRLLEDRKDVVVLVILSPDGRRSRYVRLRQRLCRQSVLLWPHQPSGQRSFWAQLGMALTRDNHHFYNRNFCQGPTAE
Description: To further investigate whether it is possible to increase IRS activity with respect to inhibition of IFN-α production by aggregating IRS molecule onto a higher order molecule, we have generated molecules that are composed by IRS oligonucleotides that are covalently associated to Ficoll 400, a neutral, highly branched, hydrophilic polymer of sucrose. The nature of this sugar allowed us to link between 10 to over 100 IRS oligos per Ficoll molecule.
The conjugation of oligonucleotides to ficoll as practiced currently consists of four reaction steps: (I) The commercially obtained ficoll is carboxymethylated by reaction of ficoll with chloroacetic acid in base. (II) After neutralization and dialysis, product is reacted with ethylene diamine in the presence of the 1-ethyl-3-[3-(dimethylaminopropyl]carbodiimide) EDC to give product (III). After dialysis Product (III) is reacted with (sulfosuccinimidal 4-[N-maleimidyl]-cyclohexane-1-carboxylate) SMCC to give the ficoll-maleimide product (IV). The thiol-reactive species (IV) is then reacted with the oligonucleotide thiol to give the final product (V), a multioligonucleotide conjugate of ficoll.
Thus, it is possible to increase IRS activity with respect to inhibition of IFN-α production by aggregating IRS molecule onto a higher order molecule.

Compound: 5′-UGC UCC UGG AGG GGU UGU-3′ (DNA UGCUCCUGGAGGGGUUGU; all 2'-O-methyl, backbone not given here) [SEQ ID NO:135, all nucleotides modified with a 2′-O-Me modification]
- IL-6 levels compared to unmodified SEQ ID NO:123 (TLR7): significant decrease

Compound: 5′-UGCUCCUGGAGGGG UUGU-3′ (DNA TGCTCCTGGAGGGGTTGT; all LNA, backbone and methylation of C not given here) [SEQ ID NO:161]
- IL-6 levels compared to unmodified SEQ ID NO:123 (TLR7): failed to result in a significant decreased
- IL-6 levels compared to unmodified SEQ ID NO:123 (TLR9 [1]): failed to result in a significant decreased

- solubility [2]: < 5000 µg/mL
Compound: OCCCCCCCCCCCCO [1,12-dihydroxydodecane]

Compound: C[C@@H]1C[C@H]2[C@@H]3CCC4=CC(=O)C=C[C@]4(C)[C@@]3(F)[C@@H](O)C[C@]2(C)[C@@]1(O)C(=O)CO [Dexthametasone]
- PDC sensitivity to glucorticoid induced death in vivo (PDC): sensitive

Compound: IRS-Ficoll 400: 5′-TGCTCCTGGAGGGGTTGT-3′ (SEQ ID NO:123) coupled to Ficoll 400 (coupled to Ficoll 400, backbone chemistry not given here)
- activity for blocking IFN-α production by PDC (TLR9 [3]): much increased activity
